Molecular target: T1, human EDG-2 (Homo sapiens, UniProt Q92633)
T1 construct: cDNA of the cloned human EDG-2 was introduced into pEFneo, which is an animal expression vector; expressed in transfected cells; host or cells: HepG2
Assay: Inhibitory activity on LPA-induced elevation of intracellular Ca2+ level
Format: cell-based
Conditions: 50% inhibition of elevation of intracellular Ca2+ level by LPA, human EDG-2/HepG2 cells, fura-2
Description: The human EDG-2 expression plasmid was introduced into HepG2 cells by electroporation. After the introduction, culturing was continued while exchanging selective media every 3 to 4 days, thereby obtaining an expressed colony. Regarding these cells, Ca-influx and cell-proliferation by LPA, level of [^3H] LPA binding and the like were inspected to select a cell line which highly expresses human EDG-2 (human EDG-2/HepG2).
Human EDG-2/HepG2 cells were washed and then suspended in 0.1% BSA (bovine serum albumin)-containing HEPES buffer. A fluorescent indicator, fura-2/AM (Wako Pure Chemical Industries, Ltd.), was added, and the mixture was shaken at room temperature for 45 minutes so that the indicator is included in the cell. Cells were washed again and then suspended in 0.1% BSA-containing HEPES buffer, and intracellular Ca^2+ level was assayed using FDSS2000 (Hamamatsu Photonics). […] Each test compound was added to the cell suspension followed by the addition of LPA, thereby examining the inhibitory activity of the test compound on the function of LPA for elevating the intracellular Ca level. […] The lower the IC50 value, the higher the antagonistic activity on the LPA receptor.

T1 sequence (Q92633 whole entry): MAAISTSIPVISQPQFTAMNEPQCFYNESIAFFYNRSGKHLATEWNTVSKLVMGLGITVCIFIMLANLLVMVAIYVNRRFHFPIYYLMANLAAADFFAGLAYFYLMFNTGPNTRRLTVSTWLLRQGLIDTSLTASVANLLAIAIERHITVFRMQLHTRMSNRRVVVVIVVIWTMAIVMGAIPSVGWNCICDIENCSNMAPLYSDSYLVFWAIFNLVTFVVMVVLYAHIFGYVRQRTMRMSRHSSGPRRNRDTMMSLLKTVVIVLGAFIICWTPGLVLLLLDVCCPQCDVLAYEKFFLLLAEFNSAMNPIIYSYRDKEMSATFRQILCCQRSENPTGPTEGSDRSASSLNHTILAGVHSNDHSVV

| SMILES | IC50 [µM] |
| --- | --- |
| Cc1onc(-c2ccccc2)c1NC(=O)OC(c1ccccc1)C(F)(F)F (centres unmarked) [Compound 80, 2,2,2-Trifluoro-1-phenylethyl N-(5-methyl-3-phenyl-4-isoxazolyl)carbamate] | 1 to 3 |
| Cc1onc(-c2ccccc2)c1NC(=O)OC(C)c1ccccc1Br (centres unmarked) [Compound 23, 1-(2-Bromophenyl)ethyl N-(5-methyl-3-phenyl-4-isoxazolyl)carbamate] | 10 |
| COc1ccc(-c2onc(C)c2NC(=O)OC(C)c2ccccc2Cl)cc1 (centres unmarked) [Compound 50, 1-(2-Chlorophenyl)ethyl N-[5-(4-methoxyphenyl)-3-methyl-4-isoxazolyl]carbamate] | 10 to 30 |
| Cc1noc(-c2ccc3c(c2)OCO3)c1NC(=O)OC(C)c1ccccc1Cl (centres unmarked) [Compound 52, 1-(2-Chlorophenyl)ethyl N-[5-(1,3-benzodioxol-5-yl)-3-methyl-4-isoxazolyl]carbamate] | 30 |
| Cc1ccc(-c2onc(C)c2NC(=O)O[C@H](C)c2ccccc2Br)cc1 [Compound 48, (1R)-1-(2-Bromophenyl)ethyl N-[3-methyl-5-(4-methylphenyl)-4-isoxazolyl]carbamate] | 3 to 10 |
| Cc1noc(-c2cccc(F)c2)c1NC(=O)OC(C)c1ccccc1F (centres unmarked) [Compound 34, 1-(2-Fluorophenyl)ethyl N-[5-(3-fluorophenyl)-3-methyl-4-isoxazolyl]carbamate] | 10 |
| Cc1onc(-c2ccccc2)c1NC(=O)O[C@@H](C)c1ccccc1 [Compound 10, (1S)-1-Phenylethyl N-(5-methyl-3-phenyl-4-isoxazolyl)carbamate] | ≥ 100 |
| Cc1onc(-c2ccccc2)c1NC(=O)OCCc1ccccc1 [Compound 96, Phenethyl N-(5-methyl-3-phenyl-4-isoxazolyl)carbamate] | 30 to 100 |
| CCCCc1ccc(-c2onc(C)c2NC(=O)OC(C)c2ccccc2)cc1 (centres unmarked) [Compound 64, 1-Phenylethyl N-[5-(4-butylphenyl)-3-methyl-4-isoxazolyl]carbamate] | 10 to 30 |
| CCc1noc(-c2ccc(CCl)cc2)c1NC(=O)OC(C)c1ccccc1F (centres unmarked) [Compound 160, 1-(2-Fluorophenyl)ethyl N-{5-[4-(chloromethyl)phenyl]-3-ethyl-4-isoxazolyl}carbamate] | 3 to 10 |
| Cc1noc(-c2cccs2)c1NC(=O)OC(C)c1ccccc1 (centres unmarked) [Compound 56, 1-Phenylethyl N-[3-methyl-5-(2-thienyl)-4-isoxazolyl]carbamate] | 3 to 10 |
| Cc1noc(-c2ccc([N+](=O)[O-])cc2)c1NC(=O)OC(C)c1ccccc1Cl (centres unmarked) [Compound 55, 1-(2-Chlorophenyl)ethyl N-[3-methyl-5-(4-nitrophenyl)-4-isoxazolyl]carbamate] | 3 to 10 |
| Cc1noc(-c2cccc(F)c2)c1NC(=O)OC(C)c1ccccc1 (centres unmarked) [Compound 29, 1-Phenylethyl N-[5-(3-fluorophenyl)-3-methyl-4-isoxazolyl]carbamate] | 10 |
| Cc1onc(-c2ccccc2)c1NC(=O)O[C@H](C)c1ccccc1Cl [Compound 17, (1R)-1-(2-Chlorophenyl)ethyl N-(5-methyl-3-phenyl-4-isoxazolyl)carbamate] | 3 |
| Cc1noc(-c2ccccc2F)c1NC(=O)OC(C)c1ccccc1 (centres unmarked) [Compound 42, 1-Phenylethyl N-[5-(2-fluorophenyl)-3-methyl-4-isoxazolyl]carbamate] | 10 |
| Cc1ccccc1C(C)OC(=O)Nc1c(-c2ccccc2)noc1C (centres unmarked) [Compound 14, 1-(2-Methylphenyl)ethyl N-(5-methyl-3-phenyl-4-isoxazolyl)carbamate] | 30 to 100 |
| Cc1noc(-c2cccc(F)c2)c1NC(=O)O[C@H](C)c1ccccc1Br [Compound 33, (1R)-1-(2-Bromophenyl)ethyl N-[5-(3-fluorophenyl)-3-methyl-4-isoxazolyl]carbamate] | 3 to 10 |
| Cc1onc(-c2ccc(CO)cc2)c1NC(=O)OC(C)c1ccccc1Cl (centres unmarked) [Compound 8, 1-(2-Chlorophenyl)ethyl N-[3-[4-(hydroxymethyl)phenyl]-5-methyl-4-isoxazolyl]carbamate] | 3 to 10 |
| Cc1noc(-c2ccc(Br)o2)c1NC(=O)OC(C)c1ccccc1Cl (centres unmarked) [Compound 73, 1-(2-Chlorophenyl)ethyl N-[5-(5-bromo-2-furyl)-3-methyl-4-isoxazolyl]carbamate] | 1 to 3 |
| Cc1onc(-c2ccc([N+](=O)[O-])cc2)c1NC(=O)OC(C)c1ccccc1Cl (centres unmarked) [Compound 6, 1-(2-Chlorophenyl)ethyl N-[5-methyl-3-(4-nitrophenyl)-4-isoxazolyl]carbamate] | 10 |
| Cc1noc(-c2ccncc2)c1NC(=O)OC(C)c1ccccc1 (centres unmarked) [Compound 61, 1-Phenylethyl N-[3-methyl-5-(4-pyridyl)-4-isoxazolyl]carbamate] | 3 to 10 |

| SMILES | IC50 [µM] |
| --- | --- |
| Cc1cccc(-c2onc(C)c2NC(=O)OC(C)c2ccccc2)c1 (centres unmarked) [Compound 27, 1-Phenylethyl N-[3-methyl-5-(3-methylphenyl)-4-isoxazolyl]carbamate] | 30 |
| Cc1onc(-c2ccc(OC(F)(F)F)cc2)c1NC(=O)OC(C)c1ccccc1Cl (centres unmarked) [Compound 11, 1-(2-Chlorophenyl)ethyl N-[5-methyl-3-[4-(trifluoromethoxy)phenyl]-4-isoxazolyl]carbamate] | 10 to 30 |
| Cc1noc(-c2ccc(COCc3ccc(F)cc3)cc2)c1NC(=O)OC(C)c1ccccc1Cl (centres unmarked) [Compound 82, 1-(2-Chlorophenyl)ethyl N-[5-(4-[[(4-fluorobenzyl)oxy]methyl]phenyl)-3-methyl-4-isoxazolyl]carbamate] | 10 to 30 |
| Cc1noc(-c2ccc(CN3CCOCC3)cc2)c1NC(=O)OC(C)c1ccccc1Cl (centres unmarked) [Compound 88, 1-(2-Chlorophenyl)ethyl N-[3-methyl-5-[4-(morpholinomethyl)phenyl]-4-isoxazolyl]carbamate] | 3 to 10 |
| Cc1noc(-c2ccccc2)c1NC(=O)OCc1ccccc1 [Compound 7, Benzyl N-(3-methyl-5-phenyl-4-isoxazolyl)carbamate] | 30 |
| Cc1noc(-c2cccs2)c1NC(=O)OC(C)c1ccccc1Cl (centres unmarked) [Compound 57, 1-(2-Chlorophenyl)ethyl N-[3-methyl-5-(2-thienyl)-4-isoxazolyl]carbamate] | 3 |
| Cc1noc(-c2ccc(CN3CC(C)OC(C)C3)cc2)c1NC(=O)OC(C)c1ccccc1Cl (centres unmarked) [Compound 89, 1-(2-Chlorophenyl)ethyl N-(5-[4-[(2,6-dimethylmorpholino)methyl]phenyl]-3-methyl-4-isoxazolyl)carbamate] | 10 to 30 |
| CCc1noc(-c2ccc(C#N)cc2)c1NC(=O)OC(C)c1ccccc1Cl (centres unmarked) [Compound 77, 1-(2-Chlorophenyl)ethyl N-[5-(4-cyanophenyl)-3-ethyl-4-isoxazolyl]carbamate] | 1 to 3 |
| Cc1noc(-c2ccc(CNCCc3ccccn3)cc2)c1NC(=O)OC(C)c1ccccc1Cl (centres unmarked) [Compound 90, 1-(2-Chlorophenyl)ethyl N-(3-methyl-5-[4-[([2-(2-pyridyl)ethyl]amino)methyl]phenyl]-4-isoxazolyl)carbamate] | 10 |
| Cc1onc(-c2cccc(C(F)(F)F)c2)c1NC(=O)OC(C)c1ccccc1Cl (centres unmarked) [Compound 15, 1-(2-Chlorophenyl)ethyl N-[5-methyl-3-[3-(trifluoromethyl)phenyl]-4-isoxazolyl]carbamate] | 30 |
| Cc1noc(-c2cccc([N+](=O)[O-])c2)c1NC(=O)OC(C)c1ccccc1 (centres unmarked) [Compound 58, 1-Phenylethyl N-[3-methyl-5-(3-nitrophenyl)-4-isoxazolyl]carbamate] | 10 |
| Cc1onc(-c2ccccc2)c1NC(=O)OCCC(C)C [Compound 100, Isopentyl N-(5-methyl-3-phenyl-4-isoxazolyl)carbamate] | 30 to 100 |
| Cc1ccc(-c2noc(C)c2NC(=O)OC(C)c2ccccc2Cl)cc1 (centres unmarked) [Compound 5, 1-(2-Chlorophenyl)ethyl N-[5-methyl-3-(4-methylphenyl)-4-isoxazolyl]carbamate] | 10 to 30 |
| Cc1onc(-c2ccccc2)c1NC(=O)OCc1ccccc1 [Compound 2, Benzyl N-(5-methyl-3-phenyl-4-isoxazolyl)carbamate] | 30 to 100 |
| Cc1noc(-c2ccc(OC(F)(F)F)cc2)c1NC(=O)OC(C)c1ccccc1 (centres unmarked) [Compound 35, 1-Phenylethyl N-[5-[4-(trifluoromethoxy)phenyl]-3-methyl-4-isoxazolyl]carbamate] | 3 to 10 |
| CCCCC(C)OC(=O)Nc1c(-c2ccccc2)noc1C (centres unmarked) [Compound 101, 1-Methylpentyl N-(5-methyl-3-phenyl-4-isoxazolyl)carbamate] | 30 to 100 |
| Cc1ccc(-c2onc(C)c2NC(=O)OC(C)c2ccccc2F)cc1 (centres unmarked) [Compound 49, 1-(2-Fluorophenyl)ethyl N-[3-methyl-5-(4-methylphenyl)-4-isoxazolyl]carbamate] | 10 to 30 |
| Cc1ccc(-c2onc(C)c2NC(=O)OC(C)c2ccccc2)cc1 (centres unmarked) [Compound 37, 1-Phenylethyl N-[3-methyl-5-(4-methylphenyl)-4-isoxazolyl]carbamate] | 30 |
| Cc1noc(-c2ccc(COCc3ccoc3)cc2)c1NC(=O)OC(C)c1ccccc1Cl (centres unmarked) [Compound 85, 1-(2-Chlorophenyl)ethyl N-(5-[4-[(3-furylmethoxy)methyl]phenyl]-3-methyl-4-isoxazolyl)carbamate] | 3 to 10 |
| Cc1noc(-c2ccccc2Br)c1NC(=O)OC(C)c1ccccc1Cl (centres unmarked) [Compound 51, 1-(2-Chlorophenyl)ethyl N-[5-(2-bromophenyl)-3-methyl-4-isoxazolyl]carbamate] | 10 to 30 |
